Experimental data taken from PubChem BioAssay AID330 (DTP/NCI, 2004).
Where “and” joins values, the source holds several entries; their conditions need not be identical. Identical values can stand only once. Toxic doses and inconclusive results are not listed.

System: P388 leukemia ip, CD2F1 mice, survival T/C
Assay: NCI In Vivo Anticancer Drug Screen. Data for tumor model P388 Leukemia (intraperitoneal) in CD2F1 (CDF1) mice
Details: endpoint: median survival time, higher = longer survival
In short: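 Mice carrying the transplanted tumor received test compound or vehicle. Survival was recorded in each group, and the value is the treated-group measurement divided by that of the vehicle-treated control group.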

[1] = dose: 25.0 mg/kg/injection, schedule: Q01DX009 (ip), vehicle: saline with Tween-80
[2] = dose: 50.0 mg/kg/injection, schedule: Q01DX009 (ip), vehicle: saline with Tween-80
[3] = dose: 100.0 mg/kg/injection, schedule: Q01DX009 (ip), vehicle: saline with Tween-80
[4] = dose: 100.0 mg/kg/injection, schedule: Q04DX003 (ip), vehicle: saline with Tween-80
[5] = dose: 200.0 mg/kg/injection, schedule: Q04DX003 (ip), vehicle: saline with Tween-80
[6] = dose: 50.0 mg/kg/injection, schedule: Q01DX005 (ip), vehicle: Klucel (hydroxypropylcellulose) (HPC)
[7] = dose: 100.0 mg/kg/injection, schedule: Q01DX005 (ip), vehicle: Klucel (hydroxypropylcellulose) (HPC)
[8] = dose: 200.0 mg/kg/injection, schedule: Q01DX005 (ip), vehicle: Klucel (hydroxypropylcellulose) (HPC)
[9] = dose: 60.0 mg/kg/injection, schedule: Q01DX005 (ip), vehicle: saline with Tween-80
[10] = dose: 120.0 mg/kg/injection, schedule: Q01DX005 (ip), vehicle: saline with Tween-80
[11] = dose: 50.0 mg/kg/injection, schedule: Q01DX005 (ip), vehicle: saline with Tween-80
[12] = dose: 100.0 mg/kg/injection, schedule: Q01DX005 (ip), vehicle: saline with Tween-80
[13] = dose: 200.0 mg/kg/injection, schedule: Q01DX005 (ip), vehicle: saline with Tween-80
[14] = dose: 50.0 mg/kg/injection, schedule: Q01DX009 (ip), vehicle: saline
[15] = dose: 100.0 mg/kg/injection, schedule: Q01DX009 (ip), vehicle: saline

C=C1C(O)C2(O)OCC34C(CC5C(C)=CC(=O)C(O)C5(C)C23)OC(=O)C(OC(=O)C/C=C/CCCCCCCC)C14 (stereo unspecified)
T/C (dose: 2.0 mg/kg/injection, schedule: Q01DX005 (ip), vehicle: saline + alcohol): 151 % of control
T/C (dose: 4.0 mg/kg/injection, schedule: Q01DX005 (ip), vehicle: saline + alcohol): 151 % of control and 156 % of control
T/C (dose: 8.0 mg/kg/injection, schedule: Q01DX005 (ip), vehicle: saline + alcohol): 198 % of control
T/C (dose: 16.0 mg/kg/injection, schedule: Q01DX005 (ip), vehicle: saline + alcohol): 205 % of control

CC1=C2C(=O)[C@H]3[C@@H](CC=C4C[C@@H](O)CC[C@@]43C)[C@@H]2CC[C@]12O[C@@H]1C[C@H](C)CN[C@H]1[C@H]2C
T/C [1]: 98 % of control
T/C [2]: 92 % of control
T/C [3]: 92 % of control

CC1=CC(OCc2ccccc2)OC1=O (stereo unspecified)
T/C (dose: 100.0 mg/kg/injection, schedule: Q04DX002 (ip), vehicle: Klucel (hydroxypropylcellulose) (HPC)): 101 % of control
T/C (dose: 200.0 mg/kg/injection, schedule: Q04DX002 (ip), vehicle: Klucel (hydroxypropylcellulose) (HPC)): 102 % of control
T/C (dose: 400.0 mg/kg/injection, schedule: Q04DX002 (ip), vehicle: Klucel (hydroxypropylcellulose) (HPC)): 104 % of control

O=C(Nc1ccc(C(=O)Nc2cccc(C3=NCCN3)c2)cc1)Nc1ccc(C(=O)Nc2cccc(C3=NCCN3)c2)cc1
T/C (dose: 100.0 mg/kg/injection, schedule: Q01DX001 (ip), vehicle: saline): 108 % of control
T/C (dose: 200.0 mg/kg/injection, schedule: Q01DX001 (ip), vehicle: saline): 100 % of control
T/C (dose: 400.0 mg/kg/injection, schedule: Q01DX001 (ip), vehicle: saline): 116 % of control

CCCCCC(C=O)C(O)(C(F)(F)F)C(F)(F)Cl (stereo unspecified)
T/C (dose: 50.0 mg/kg/injection, schedule: Q04DX003 (ip), vehicle: saline with Tween-80): 100 % of control
T/C [4]: 100 % of control
T/C [5]: 109 % of control

CCC(=O)C(C)C(=O)CCC(=O)Nc1cc(Cl)ccc1Cl (stereo unspecified)
T/C (dose: 60.0 mg/kg/injection, schedule: Q01DX005 (ip), vehicle: saline): 101 % of control
T/C (dose: 120.0 mg/kg/injection, schedule: Q01DX005 (ip), vehicle: saline): 103 % of control
T/C (dose: 240.0 mg/kg/injection, schedule: Q01DX005 (ip), vehicle: saline): 103 % of control

Cc1nc(N(C)C)[nH]c(=O)c1N=Nc1ccc(Cl)cc1
T/C [6]: 105 % of control
T/C [7]: 114 % of control
T/C [8]: 105 % of control

COc1ccc(C2Cc3cc(OC)c(OC)cc3C(c3ccccc3)N2)cc1OC (stereo unspecified)
T/C [9]: 86 % of control
T/C [10]: 88 % of control
T/C (dose: 240.0 mg/kg/injection, schedule: Q01DX005 (ip), vehicle: saline with Tween-80): 89 % of control

O=[N+]([O-])c1ccc(-c2nnn(CCCN3CCOCC3)c2N2CCCCC2)cc1
T/C [6]: 107 % of control
T/C [7]: 107 % of control
T/C [8]: 107 % of control

CCOC(=O)NC(CC(NC(=O)OCC)NC(=O)OCC)NC(=O)OCC
T/C [11]: 108 % of control
T/C [12]: 107 % of control
T/C [13]: 110 % of control

COC(=O)c1ccccc1NC(Cc1ccccc1)=NC(C)(C)C
T/C [2]: 86 % of control
T/C [3]: 99 % of control

CC(C)(O)/C=C/C(=O)[C@](C)(O)[C@H]1[C@H](O)C[C@@]2(C)[C@@H]3CC=C4[C@@H](C[C@H](O)C(=O)C4(C)C)[C@]3(C)C(=O)C[C@]12C
T/C (dose: 0.25 mg/kg/injection, schedule: Q01DX009 (ip), vehicle: saline + Tween-80 + alcohol): 118 % of control
T/C (dose: 0.25 mg/kg/injection, schedule: Q01DX009 (ip), vehicle: saline with Tween-80): 105 % of control
T/C (dose: 0.25 mg/kg/injection, schedule: Q01DX009 (ip), vehicle: saline): 113 % of control
T/C (dose: 0.5 mg/kg/injection, schedule: Q01DX009 (ip), vehicle: saline + Tween-80 + alcohol): 121 % of control
T/C (dose: 0.5 mg/kg/injection, schedule: Q01DX009 (ip), vehicle: saline with Tween-80): 108 % of control
T/C (dose: 0.5 mg/kg/injection, schedule: Q01DX009 (ip), vehicle: saline): 111 % of control
T/C (dose: 0.5 mg/kg/injection, schedule: Q01DX010 (ip), vehicle: saline): 95 % of control
T/C (dose: 0.96 mg/kg/injection, schedule: Q01DX009 (ip), vehicle: saline + Tween-80 + alcohol): 152 % of control
T/C (dose: 0.96 mg/kg/injection, schedule: Q01DX009 (ip), vehicle: saline with Tween-80): 105 % of control
T/C (dose: 1.0 mg/kg/injection, schedule: Q01DX009 (ip), vehicle: saline + Tween-80 + alcohol): 118 % of control
T/C (dose: 1.0 mg/kg/injection, schedule: Q01DX009 (ip), vehicle: saline with Tween-80): 119 % of control
T/C (dose: 1.0 mg/kg/injection, schedule: Q01DX009 (ip), vehicle: saline): 111 % of control

CN1C(=O)/C(=N\n2c(-c3ccccc3)nc3ccccc3c2=O)c2ccccc21
T/C (dose: 25.0 mg/kg/injection, schedule: Q01DX005 (ip), vehicle: Klucel (hydroxypropylcellulose) (HPC)): 91 % of control
T/C [6]: 87 % of control and 88 % of control
T/C [7]: 102 % of control and 89 % of control
T/C [8]: 100 % of control

Cc1nc2cc(N)c(Cl)cc2[nH]1
T/C [9]: 104 % of control
T/C [10]: 107 % of control

COC1(C)OC23C(=O)N(C)C(=O)N(C)C2(O1)N(C(C)=O)C(=O)N3C (stereo unspecified)
T/C [11]: 100 % of control
T/C [12]: 105 % of control
T/C [13]: 98 % of control

O=C1NC(=O)C2(CCCc3c([N+](=O)[O-])cccc32)N1 (stereo unspecified)
T/C [2]: 97 % of control
T/C [3]: 93 % of control
T/C (dose: 200.0 mg/kg/injection, schedule: Q01DX009 (ip), vehicle: saline with Tween-80): 90 % of control

[O-]/[N+](C1C(Cl)C2CC1C1C=CCC12)=[N+](\[O-])C1C(Cl)C2CC1C1C=CCC12 (stereo unspecified)
T/C (dose: 15.0 mg/kg/injection, schedule: Q01DX005 (ip), vehicle: saline with Tween-80): 95 % of control
T/C (dose: 30.0 mg/kg/injection, schedule: Q01DX005 (ip), vehicle: saline with Tween-80): 92 % of control
T/C [9]: 100 % of control and 86 % of control

Cn1c(Cl)c(/C=C(/NC(=O)c2ccccc2)C(=O)O)c2ccccc21
T/C (dose: 100.0 mg/kg/injection, schedule: Q01DX001 (ip), vehicle: Klucel (hydroxypropylcellulose) (HPC)): 102 % of control
T/C (dose: 200.0 mg/kg/injection, schedule: Q01DX001 (ip), vehicle: Klucel (hydroxypropylcellulose) (HPC)): 93 % of control
T/C (dose: 400.0 mg/kg/injection, schedule: Q01DX001 (ip), vehicle: Klucel (hydroxypropylcellulose) (HPC)): 93 % of control

Cc1cc(Cl)ccc1NC(=O)Oc1nc2ccccc2o1
T/C (dose: 12.5 mg/kg/injection, schedule: Q01DX009 (ip), vehicle: saline with Tween-80): 104 % of control and 96 % of control
T/C [1]: 99 % of control and 101 % of control
T/C [2]: 111 % of control and 96 % of control
T/C [3]: 101 % of control and 112 % of control

O=P(N1CCCC1)(N1CCCC1)N1CCCC1
T/C [14]: 100 % of control
T/C [15]: 102 % of control and 107 % of control
T/C (dose: 200.0 mg/kg/injection, schedule: Q01DX009 (ip), vehicle: saline): 101 % of control
T/C (dose: 400.0 mg/kg/injection, schedule: Q01DX009 (ip), vehicle: saline): 103 % of control

CC(=O)NCCSSSCCNC(C)=O
T/C (dose: 50.0 mg/kg/injection, schedule: Q01DX005 (ip), vehicle: saline): 115 % of control
T/C (dose: 100.0 mg/kg/injection, schedule: Q01DX005 (ip), vehicle: saline): 115 % of control

CC(C)Oc1ccc2c(c1)Sc1ccc(Cl)cc1N2
T/C [4]: 100 % of control
T/C [5]: 100 % of control
T/C (dose: 400.0 mg/kg/injection, schedule: Q04DX003 (ip), vehicle: saline with Tween-80): 100 % of control

COc1ccc(C(=O)CCN(C)C)cc1
T/C [14]: 104 % of control
T/C [15]: 104 % of control

COc1ccc(N=C2C(=Nc3ccc(OC)cc3)N(c3ccc(OC)cc3)C(=S)N2C(=O)c2ccc(Cl)cc2)cc1
T/C (dose: 50.0 mg/kg/injection, schedule: Q01DX005 (ip), vehicle: Klucel + Tween-80): 90 % of control
T/C (dose: 100.0 mg/kg/injection, schedule: Q01DX005 (ip), vehicle: Klucel + Tween-80): 93 % of control
T/C (dose: 200.0 mg/kg/injection, schedule: Q01DX005 (ip), vehicle: Klucel + Tween-80): 90 % of control
